According to publication PMC12670160, “A drug-repurposing screen of FDA- and EMA-approved drugs identifies two NF-κB inhibitors active against eumycetoma” (Journal of Antimicrobial Chemotherapy, 2025):
In brackets after ≈: the same amount, converted by molar mass. Entries after “also recorded” stand apart in the source; their conditions may differ. Like-named read-outs stand apart in the source and are kept apart here.

Legend:
[1] = system: itraconazole-susceptible and itraconazole-resistant Aspergillus fumigatus; parameters: method as in PMID 37037064; conditions: cited from earlier work
thioredoxin reductase = system: thioredoxin reductase; parameters: method as in PMID 39816643; conditions: cited from earlier work
[2] = system: M. mycetomatis strain mm55; assay: microbe, parasite or virus in culture; parameters: species or system Madurella mycetomatis hyphae; conditions: Madurella mycetomatis, MM55, 96 h
Method: (§1) The Oncode Drug Repurposing library was based on the drug repurposing library from the Drug Repurposing Hub of the Broad Institute and recreated by the Oncode institute.[13] The library contained 5631 drugs.[18] A copy of this library was plated out on 384-well plates with lids (cat no. 655180; Greiner Bio-One, Alphen aan den Rijn, The Netherlands) by the Leiden University Medical Center. Each well of the 384-well plates contained 0.6 µL of a 200 µM stock concentration of compound, resulting in a final concentration of 2 µM when the fungus was added. From the previous libraries we screened, we noted that there are several compounds able to inhibit M. mycetomatis at this concentration in vitro. Furthermore, this concentration could also be reached in the G. mellonella larvae.[8],[11] The prepared 384-well plates were transferred on dry ice to the Erasmus MC and stored at −80°C until they were screened. We created a second library from the original library, containing only those 29 compounds that were active in the first screen. […] To determine the in vitro susceptibility of M. mycetomatis to the compounds, a hyphal inoculum was prepared as described elsewhere.[19] This M. mycetomatis hyphal suspension (60 µL) was added to each of the wells in the 384-well plate, leading to a final testing concentration of 2 µM per compound. Each plate also contained a growth control (60 µL of M. mycetomatis hyphal suspension, plus 0.6 µL of DMSO) and a negative control (60 µL of culture medium, plus 0.6 µL of DMSO). Plates were then incubated for 4 days at 37°C, after which 30 µL of CellTiter-Glo 3D Cell Viability reagent was added to every well.[19] After 25 min of incubation at room temperature, the luminescence was measured with a CytoFluor Series 4000 luminometer (PerSeptive Biosystems, Framingham, MA, USA). To determine the metabolic activity, the following formula was used: For each of these 29 active compounds, the IC50 and MIC were determined for M. mycetomatis strains MM55, P1 and I1 (Table 1 and Table S1).

M. mycetomatis strain I1 [3] = assay: microbe, parasite or virus in culture; parameters: species or system Madurella mycetomatis hyphae; conditions: Madurella mycetomatis, I1, 96 h
Method: as §1

M. mycetomatis strain P1 [4] = assay: microbe, parasite or virus in culture; parameters: species or system Madurella mycetomatis hyphae; conditions: Madurella mycetomatis, P1, 96 h
Method: as §1

eumycetoma = conditions: first 6 months of treatment, cited from earlier work
[5] = system: M. mycetomatis isolate MM55; assay: Oncode library screen at 2 µM, CLSI-based in vitro susceptibility assay with CellTiter-Glo (metabolic activity); assay type: cell-based, Madurella mycetomatis; conditions: primary screen, strain MM55, 20% or below = inhibition
Method: M. mycetomatis isolate MM55 was used to screen the Oncode library. This strain was kindly provided by Prof. A. Fahal of the Mycetoma Research Centre in 1999. The most promising hit compounds were also screened against M. mycetomatis isolates P1 and I1, which originated from Mali and India, respectively.[17] The three M. mycetomatis isolates were identified by ITS sequencing and maintained at −80°C at Erasmus MC. Prior to in vitro screening, isolates were cultured on Sabouraud agar plates (BD, Erembodegem, Belgium) at 37°C.
The Oncode Drug Repurposing library was based on the drug repurposing library from the Drug Repurposing Hub of the Broad Institute and recreated by the Oncode institute.[13] The library contained 5631 drugs.[18] A copy of this library was plated out on 384-well plates with lids (cat no. 655180; Greiner Bio-One, Alphen aan den Rijn, The Netherlands) by the Leiden University Medical Center. Each well of the 384-well plates contained 0.6 µL of a 200 µM stock concentration of compound, resulting in a final concentration of 2 µM when the fungus was added. From the previous libraries we screened, we noted that there are several compounds able to inhibit M. mycetomatis at this concentration in vitro. Furthermore, this concentration could also be reached in the G. mellonella larvae.[8],[11] The prepared 384-well plates were transferred on dry ice to the Erasmus MC and stored at −80°C until they were screened. We created a second library from the original library, containing only those 29 compounds that were active in the first screen.
(§2) . Each plate also contained a growth control (60 µL of M. mycetomatis hyphal suspension, plus 0.6 µL of DMSO) and a negative control (60 µL of culture medium, plus 0.6 µL of DMSO). Plates were then incubated for 4 days at 37°C, after which 30 µL of CellTiter-Glo 3D Cell Viability reagent was added to every well.[19] After 25 min of incubation at room temperature, the luminescence was measured with a CytoFluor Series 4000 luminometer (PerSeptive Biosystems, Framingham, MA, USA). To determine the metabolic activity, the following formula was used:
(§3) Percentagemetabolicactivity=(Absorbancetestluminensence−AbsorbanceNCluminensence/AbsorbanceGCluminensence−AbsorbanceNCluminensence)×100
(§4) where, GC is growth control and NC is negative control. The luminescence measured for the GC is considered as 100% metabolic activity. The luminescence for the NC is considered as 0% metabolic activity.

M. mycetomatis strain I1 [6] = assay: IC50 and MIC determination, CellTiter-Glo, strain I1; assay type: cell-based, Madurella mycetomatis; conditions: Madurella mycetomatis, I1
[7] = system: M. mycetomatis strain mm55; assay: IC50 and MIC determination, CellTiter-Glo, strain mm55; assay type: cell-based, Madurella mycetomatis; conditions: Madurella mycetomatis; for IC50: concentration inhibiting 50% of fungal hyphae growth; for MIC: concentration with complete growth inhibition
M. mycetomatis [8] = system: M. mycetomatis; parameters: method as in PMID 35398930, PMID 15793113, PMID 36005544, PMID 34181477, PMID 22964246; conditions: against M. mycetomatis; cited from earlier work
M. mycetomatis [9] = assay: In vitro susceptibility, averages over M. mycetomatis isolates (average metabolic activity at 2 µM, mean MIC); assay type: cell-based; conditions: Madurella mycetomatis, 96 h, 4 days at 37°C, CellTiter-Glo, average of 3 isolates, 20% or below = inhibition
Method: M. mycetomatis isolate MM55 was used to screen the Oncode library. This strain was kindly provided by Prof. […] The three M. mycetomatis isolates were identified by ITS sequencing and maintained at −80°C at Erasmus MC. Prior to in vitro screening, isolates were cultured on Sabouraud agar plates (BD, Erembodegem, Belgium) at 37°C.
The Oncode Drug Repurposing library was based on the drug repurposing library from the Drug Repurposing Hub of the Broad Institute and recreated by the Oncode institute.[13] […] Each well of the 384-well plates contained 0.6 µL of a 200 µM stock concentration of compound, resulting in a final concentration of 2 µM when the fungus was added. […] Furthermore, this concentration could also be reached in the G. mellonella larvae.[8],[11] The prepared 384-well plates were transferred on dry ice to the Erasmus MC and stored at −80°C until they were screened.
as §2, with “Each” for “. Each”
as §3, §4

M. mycetomatis strain P1 [10] = assay: IC50 and MIC determination, CellTiter-Glo, strain P1; assay type: cell-based, Madurella mycetomatis; conditions: Madurella mycetomatis, P1
M. mycetomatis [11] = assay: In vitro susceptibility, averages over M. mycetomatis isolates (average metabolic activity at 2 µM, mean MIC); assay type: cell-based, Madurella mycetomatis; conditions: Madurella mycetomatis; mean/average over strains MM55, P1 and I1
[12] = system: M. mycetomatis-infected G. mellonella larvae; conditions: only at concentrations higher than used in human patients; cited from earlier work
[13] = system: healthy uninfected G. mellonella larvae; conditions: 20 µL of 20 µM injected
Method: (§5) For in vivo experiments, sixth-week instar G. mellonella larvae were purchased from Blue-Lagoon, Maassluis, The Netherlands. The larvae were raised and kept in the dark at room temperature. Larvae without any discoloration and weighing around 500 mg were selected for experiments.
To determine the toxicity, 15 healthy uninfected larvae were injected with 20 µL of 20 µM compound as previously described.[16] […] As a control, a separate group of larvae were injected with 20 µL of PBS. Larvae were housed in Petri dishes with Whatman paper at 37°C in the dark. Survival was monitored for 10 days.

[14] = system: M. mycetomatis MM55-infected G. mellonella larvae; assay: Therapeutic efficacy in M. mycetomatis-infected G. mellonella larvae (survival, log-rank); assay type: in vivo, Galleria mellonella; conditions: 20 µL of 20 µM at 4, 28 and 52 h post infection; 10 days
Method: as §5
The wet weight was determined and 10 mL of PBS per gram of mycelia was added. The suspension was then sonicated for 2 min to achieve a particle size of 10 µm. The fungal suspension (4 mg/40 µL) was injected into the last left pro-leg of a healthy G. mellonella larva with an insulin 29G U-100 needle to reach a final inoculum of 4 mg/larva. Larvae were placed in Petri dishes containing Whatman paper in a 37°C incubator.
A control group was also included in which M. mycetomatis-infected larvae were treated with PBS or with 1 mg/kg amphotericin B (Fungizone, Bristol Myers Squibb, Utrecht, The Netherlands). […] The treatment was repeated at 28 h post infection and 52 h post infection via different prolegs. The infection was monitored for 10 days.
To compare the survival rates between PBS treatment control and the different experimental groups a log-rank test was performed. All data were processed and performed in GraphPad Prism 10.

Structure (SMILES): CC(=O)OC[C@H]1O[C@@H]([S-])[C@H](OC(C)=O)[C@@H](OC(C)=O)[C@@H]1OC(C)=O.CCP(CC)CC.[Au+] [auranofin]
- Aspergillus biofilm formation [1]: inhibitory activity
- antifungal activity ([1]; itraconazole-susceptible and itraconazole-resistant A. fumigatus): potent antifungal activity
- thioredoxin reductase inhibition (thioredoxin reductase): able to inhibit thioredoxin reductase

Structure (SMILES): Cc1c(N)nc([C@H](CC(N)=O)NC[C@H](N)C(N)=O)nc1C(=O)N[C@H](C(=O)N[C@H](C)[C@@H](O)[C@H](C)C(=O)N[C@H](C(=O)NCCc1nc(-c2nc(C(=O)NCCCNCCCCN)cs2)cs1)[C@@H](C)O)[C@@H](O[C@@H]1O[C@@H](CO)[C@@H](O)[C@H](O)[C@@H]1O[C@@H]1O[C@H](CO)[C@@H](O)[C@H](OC(N)=O)[C@@H]1O)c1cnc[nH]1 [ONC0002990, bleomycetin]
- IC50 [2]: 0.21 µM
- MIC [2]: 0.5 µM (≈ 0.72 µg/mL)
- IC50 (M. mycetomatis strain I1 [3]): 0.2 µM
- MIC (M. mycetomatis strain I1 [3]): 0.5 µM (≈ 0.72 µg/mL)
- IC50 (M. mycetomatis strain P1 [4]): < 0.03 µM
- MIC (M. mycetomatis strain P1 [4]): < 0.03 µM

Structure (SMILES): C[C@@H](c1nc(-c2ccc(C#N)cc2)cs1)[C@@](Cn1cncn1)(OCOP(=O)(O)O)c1ccc(F)cc1F [fosravuconazole]
- lesion size or β-glucan levels (eumycetoma; 200 mg/week): no reduction
- lesion size or β-glucan levels (eumycetoma; 300 mg/week): no reduction

Structure (SMILES): COC(=O)C1=C(C#N)NC(C)=C(C(=O)OC(C)C)C1c1cccc([N+](=O)[O-])c1 (stereo not drawn) [nilvadipine arc029]
- Madurella mycetomatis metabolic activity at 2µM (%) [5]: 85.2%

Structure (SMILES): Cc1ccc(-c2c(-c3nn(C)c4ncnc(N5CC[C@H](N6CCCCC6)C5)c34)cnn2C)cc1 [pf4981517]
- Madurella mycetomatis metabolic activity at 2µM (%) [5]: 79.1%

Structure (SMILES): CC(C)OC(=O)C1=CN(C(=O)c2ccc(F)c(F)c2)CC(C)(C)c2c1[nH]c1ccccc21 [turofexorate isopropyl xl335]
- Madurella mycetomatis metabolic activity at 2µM (%) [5]: 92.4%

Structure (SMILES): CC[C@@H]([C@H](C)O)n1ncn(-c2ccc(N3CCN(c4ccc(OC[C@@H]5CO[C@@](Cn6cncn6)(c6ccc(F)cc6F)C5)cc4)CC3)cc2)c1=O [Posaconazole]
- IC50 (M. mycetomatis strain I1 [6]): < 0.03 µM
- MIC (M. mycetomatis strain I1 [6]): 0.03 µM (≈ 0.021 µg/mL)
- IC50 [7]: 0.13 µM
- MIC [7]: 0.25 µM (≈ 0.175 µg/mL)
- MIC50 (M. mycetomatis [8]): 0.03 µg/mL (≈ 0.0428 µM)
- activity at 2 µM (M. mycetomatis [9]): 1.9%
- IC50 (M. mycetomatis strain P1 [10]): < 0.03 µM
- MIC (M. mycetomatis strain P1 [10]): 0.03 µM (≈ 0.021 µg/mL)
- MIC (M. mycetomatis [11]): < 0.03 µM
- larval survival [12]: Prolonged survival

Structure (SMILES): CC(C)(C)c1ccc(S(=O)(=O)/C=C/C#N)cc1 [bay117085]
- Toxicity in G. mellonella larvae at 20 µM ([13]; 10 day observation, toxic if more than 20% of larvae died): not toxic
- larval survival ([13]; 10 days, uninfected larvae): above 80%
- IC50 (M. mycetomatis strain I1 [6]): 0.72 µM
- MIC (M. mycetomatis strain I1 [6]): 1 µM (≈ 0.249 µg/mL)
- IC50 [7]: 1.51 µM
- MIC [7]: 2 µM (≈ 0.499 µg/mL)
- activity at 2 µM (M. mycetomatis [9]): 4%
- thioredoxin reductase inhibition (thioredoxin reductase): able to inhibit thioredoxin reductase
- IC50 (M. mycetomatis strain P1 [10]): 0.85 µM
- MIC (M. mycetomatis strain P1 [10]): 2 µM (≈ 0.499 µg/mL)
- Survival of M. mycetomatis-infected larvae versus PBS [14]: prolonged the survival; also recorded: prolonged larval survival

Structure (SMILES): O=C(NC[C@H]1CN(c2ccc(N3CCOCC3=O)cc2)C(=O)O1)c1ccc(Cl)s1 [rivaroxaban xarelto]
- Madurella mycetomatis metabolic activity at 2µM (%) [5]: 98.3%
